The record followed here is US6313132A, “Therapeutically active diarylpropylamines; their pharmaceutically acceptable salts; a method for their preparation and method for their use” (Pharmacia AB, priority 1999, dated 2001).

Where a name gives a salt, the structure may show the parent alone.

For orientation: Kb means the equilibrium dissociation constant of an antagonist, usually derived from a functional assay.

T1 sequence (H0W1Z3 1-590): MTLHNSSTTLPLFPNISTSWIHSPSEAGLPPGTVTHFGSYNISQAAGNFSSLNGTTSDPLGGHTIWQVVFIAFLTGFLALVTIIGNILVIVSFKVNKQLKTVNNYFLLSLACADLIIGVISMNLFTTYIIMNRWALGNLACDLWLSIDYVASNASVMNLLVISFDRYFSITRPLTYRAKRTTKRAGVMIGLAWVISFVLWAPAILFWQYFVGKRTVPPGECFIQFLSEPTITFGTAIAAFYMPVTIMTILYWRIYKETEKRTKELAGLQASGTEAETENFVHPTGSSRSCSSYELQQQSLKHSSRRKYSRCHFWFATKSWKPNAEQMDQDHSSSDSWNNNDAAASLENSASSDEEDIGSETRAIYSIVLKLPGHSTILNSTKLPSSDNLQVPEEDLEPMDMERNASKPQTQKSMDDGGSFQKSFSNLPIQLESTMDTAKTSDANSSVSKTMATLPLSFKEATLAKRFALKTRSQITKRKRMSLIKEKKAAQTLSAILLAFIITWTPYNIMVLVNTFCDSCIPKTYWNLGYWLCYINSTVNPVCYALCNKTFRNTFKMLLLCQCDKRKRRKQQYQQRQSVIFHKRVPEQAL

The first experiment concerns the target T1, muscarinic receptor (Cavia porcellus, UniProt H0W1Z3).
T1 construct: Smooth muscle strips of the urinary bladder were dissected in a Krebs-Henseleit solution; from tissue; host or cells: guinea pig urinary bladder smooth muscle strips
In words: Functional in vitro studies: antagonism of carbachol-induced contraction of urinary bladder smooth muscle strips. Format: cell-based, guinea pig.
Conditions: not given
For `CC(C)N(CCC(c1ccccc1)c1cnc[nH]1)C(C)C` (stereo not drawn) [Example 36, N,N-Diisopropyl-3-(imidazol-4(5)-yl)-3-phenylpropanamine dihydrochloride], the Kb came to 2640 nM.

Staying with this experiment, now noted: male guinea pig urinary bladder strips; carbachol agonist; 60 min incubation with antagonist; Krebs-Henseleit pH 7.4, 37° C.; KB from dose ratios (Schild); 60 min; read-out: KB-value.
For `CC(C)N(CC[C@H](c1ccccc1)c1cc(C(O)CO)ccc1O)C(C)C` (single isomer, unassigned; (+)) [Example 15, (+)-N,N-Diisopropyl-3(R)-[5-(1(R*),2-dihydroxyethyl)-2-hydroxyphenyl]-3-phenylpropanamine fumarate], the Kb amounted to 15 nM.

The experiment is the same for the next values; noted with them: male guinea pig urinary bladder strips; carbachol agonist; 60 min incubation with antagonist; Krebs-Henseleit pH 7.4, 37° C.; KB from dose ratios (Schild); read-out: KB-value.
Consider `CN(CCC(c1ccccc1)c1ccccc1O)C1CCC1` (stereo not drawn) [Example 31, N-Cyclobutyl-N-methyl-3-(2-hydroxyphenyl)-3-phenylpropanamine hydrochloride], for which the antagonist equilibrium constant (Kb) came out at 14 nM. Consider `Cc1csc(C(CCN(C(C)C)C(C)C)c2ccccc2)n1` (stereo not drawn) [Example 39, N,N-Diisopropyl-3-(4-methylthiazol-2-yl)-3-phenyl-propanamine hydrochloride], for which the Kb turned out to be 235 nM.

In the case of `c1ccc(C(CCN2CCCCC2)c2cccs2)cc1` (stereo not drawn) [Example 53, N-[3-Phenyl-3-(2-thienyl)propyl]piperidine hydrochloride], the Kb is 154 nM. Still for that read-out and setting: the result for `CC(C)N(CCC(c1ccccc1)c1cccn1C)C(C)C` (stereo not drawn) [Example 59, N,N-Diisopropyl-3-(N-methylpyrrol-2-yl)-3-phenylpropanamine fumarate] reads 690 nM; that for `CC(C)N(CC[C@H](c1ccccc1)c1cc(C=O)ccc1O)C(C)C` [Example 7, (R)-N,N-Diisopropyl-3-(5-formyl-2-hydroxyphenyl)-3-phenylpropanamine hydrochloride], 13 nM. Consider `CC(C)N(CC[C@H](c1ccccc1)c1cc(CCCCCCO)ccc1O)C(C)C` [Example 17, (R)-[N,N-Diisopropyl-3-[2-hydroxy-5-(6-hydroxyhexyl)phenyl]-3-phenylpropanamine hydrochloride], for which the Kb stood at 3.5 nM. With `CC(C)N(CCC(c1cccs1)c1ccc(O)cc1O)C(C)C` (stereo not drawn) [Example 42, N,N-Diisopropyl-3-(2,4-dihydroxyphenyl)-3-(2-thienyl)propanamine], the Kb stood at 286 nM. In the case of `CC(C)N(CC[C@H](c1ccccc1)c1cc(CCCO)ccc1O)C(C)C` [Example 29, (R) -N,N-Diisopropyl-3-[2-hydroxy-5-(3-hydroxypropyl)phenyl]-3-phenylpropanamine hydrochloride], the Kb stood at 1.5 nM. For `CC(C)N(CCC(c1cccnc1)c1ccccc1O)C(C)C` (stereo not drawn) [Example 5, N,N-Diisopropyl-3-(2-hydroxyphenyl)-3-(3-pyridyl)-propanamine dihydrochloride], the Kb was found to be 336 nM. The same measure, in the same setting: the result for `CC(C)N(CC[C@@H](c1ccccc1)c1cc(CCO)ccc1O)C(C)C` [Example 11, (S)-N,N-Diisopropyl-3-[2-hydroxy-5-(2-hydroxyethyl)phenyl]-3-phenylpropanamine hydrochloride] reads 431 nM; that for `CC(C)N(CCC(c1ccccc1)c1nc2ccccc2o1)C(C)C` (stereo not drawn) [Example 34, N,N-Diisopropyl-3-(benzoxazol-2-yl)-3-phenylpropanamine, hydrochloride], 803 nM; that for `COc1cccc(C(CCN(C(C)C)C(C)C)c2cccs2)c1` (stereo not drawn) [Example 45, N,N-Diisopropyl-3-(3-methoxyphenyl)-3-(2-thienyl)propanamine hydrochloride], 51 nM. The same measure, in the same setting: the result for `CN(CCC(c1ccccc1)c1cccs1)C1CCCCC1` (stereo not drawn) [Example 49, N-Cyclohexyl-N-methyl-3-phenyl-3-(2-thienyl)propanamine hydrochloride] reads 590 nM. `CC(C)N(CCC(c1cccs1)c1ccccc1O)C(C)C` (stereo not drawn) [Example 41, N,N-Diisopropyl-3-(2-hydroxyphenyl)-3-(2-thienyl)-propanamine fumarate]: the Kb stood at 7.6 nM. On the same count and under the same terms, the result for `CN(CCC(c1ccccc1)c1ccccc1O)C1CCCC1` (stereo not drawn) [Example 32, N-Cyclopentyl-N-methyl-3-(2-hydroxyphenyl)-3-phenylpropanamine hydrochloride] reads 36 nM; that for `CC(=O)c1ccc(O)c([C@H](CCN(C(C)C)C(C)C)c2ccccc2)c1` [Example 13, (R)-N,N-Diisopropyl-3-(5-acetyl-2-hydroxyphenyl)-3-phenylpropanamine hydrochloride], 15 nM; that for `CC(C)N(CC[C@H](c1ccccc1)c1cc(N=[N+]=[N-])ccc1O)C(C)C` [Example 28, (R)-N,N-Diisopropyl-3-(5-azido-2-hydroxyphenyl)-3-phenylpropanamine hydrochloride], 8.55 nM.

For `CC(C)N(CC[C@H](c1ccccc1)c1cc(CNCCOCCO)ccc1O)C(C)C` [Example 8, (R)-N,N-Diisopropyl-3-[5-(7-hydroxy-2-aza-5-oxaheptyl)-2-hydroxyphenyl]-3-phenylpropanazine di-(S)-mandelate], the Kb came out at 26 nM.

Turning to `COC(=O)c1ccc(O)c([C@H](CCN(C(C)C)C(C)C)c2ccccc2)c1` [Example 9, (R)-N,N-Diisopropyl-3-(2-hydroxy-5-methyloxycarbonyl-phenyl)-3-phenylpropanamine hydrochloride], the Kb came to 3.8 nM. For `Cc1ccc(O)c(C(CCN(C(C)C)C(C)C)c2cccs2)c1` (single isomer, unassigned) [Example 55, (R*) N,N-Diisopropyl-3-(2-hydroxy-5-methylphenyl)-3-(2-thienyl)propanamine], the Kb is 2 nM.

On to `CC(C)N(CC[C@H](c1ccccc1)c1cc(CCCN)ccc1O)C(C)C` [Example 22, (R)-N,N-Diisopropyl-3-[5-(3-aminopropyl)-2-hydroxyphenyl]-3-phenylpropanamine dihydrochloride], for which the antagonist dissociation constant (Kb) worked out at 2.8 nM.

Take `c1ccc(C(CCN2CCCC2)c2cccs2)cc1` (stereo not drawn) [Example 52, N-[3-Phenyl-3-(2-thienyl)propyl]pyrrolidine fumarate]: the Kb worked out at 350 nM. Same read-out and setting: the result for `Cc1ccc(O)c(C(CCN(CCOCCO)C(C)C)c2ccccc2)c1` (stereo not drawn) [Example 1, N-(5-Hydroxy-3-oxapentyl)-N-isopropyl-3-(2-hydroxy-5-methylphenyl)-3-phenylpropanamine hydrochloride] reads 499 nM; that for `Cn1cccc1C(CCN1CCCC1)c1ccccc1` (stereo not drawn) [Example 60, 3-(N-Methylpyrrol-2-yl)-3-phenyl-1-pyrrolidinopropane fumarate], 707 nM; that for `Cc1ccc(O)c(C(CCN(C(C)C)C(C)C)c2cccs2)c1` (single isomer, unassigned) [Example 56, (S*) N,N-Diisopropyl-3-(2-hydroxy-5-methylphenyl)-3-(2-thienyl)propanamine], 360 nM.

As to `CC(C)N(CCC(c1ccccc1)c1cnco1)C(C)C` (stereo not drawn) [Example 35, N,N-Diisopropyl-3-(oxazol-5-yl)-3-phenylpropanamine hydrochloride], the Kb came to 1770 nM. With `CC(C)N(CCC(c1ccccc1)c1ccccc1F)C(C)C` (stereo not drawn) [Example 6, N,N-Diisopropyl-3-(2-fluorophenyl)-3-phenylpropanamine hydrochloride], the Kb is 10 nM. Consider `CC(C)N(CC[C@H](c1ccccc1)c1cc(CCC#N)ccc1O)C(C)C` [Example 24, (R)-N,N-Diisopropyl-3-[5-(2-cyanoethyl)-2-hydroxyphenyl]-3-phenylpropanamine hydrochloride], for which the Kb came to 1.91 nM. Regarding `COc1ccc(C(CCN(C(C)C)C(C)C)c2cccs2)c(OC)c1` (stereo not drawn) [Example 44, N,N-Diisopropyl-3-(2,4-dimethoxyphenyl)-3-(2-thienyl)propanamine fumarate], the Kb came to 2290 nM.

As to `CC(C)N(CC[C@H](c1ccccc1)c1cc(CCO)ccc1O)C(C)C` [Example 12, (R)-N,N-Diisopropyl-3-[2-hydroxy-5-(2-hydroxyethyl)phenyl]-3-phenylpropanamine hydrochloride], the Kb came out at 1.18 nM. The same measure, in the same setting: then `CCN(CC)CCC(c1ccccc1)c1cccs1` (stereo not drawn) [Example 50, fumarate], with 154 nM. Take `CC(C)N(CCC(c1ccccc1)c1cncs1)C(C)C` (stereo not drawn) [Example 40, N,N-Diisopropyl-3-(thiazol-5-yl)-3-phenylpropanamine hydrochloride]: the Kb worked out at 814 nM. `CC(C)N(CCC(c1ccccc1)c1ccccc1CO)C(C)C` (stereo not drawn) [Example 10, N,N-Diisopropyl-3-(2-hydroxymethyl)phenyl-3-phenylpropanamine hydrochloride]: the Kb was found to be 171 nM. `CC(C)NCCC(c1ccccc1)c1cc(C(=O)O)ccc1O` (stereo not drawn) [Example 20, N-Isopropyl-3-(5-carboxy-2-hydroxyphenyl)-3-phenylpropanamine hydrochloride]: the Kb was determined as 3320 nM.

For the compound `CC(C)N(CC[C@H](c1ccccc1)c1cc(N)ccc1O)C(C)C` [Example 27, (R)-(N,N-Diisopropyl-3-(5-amino-2-hydroxyphenyl)-3-phenylpropanaminedihydrochloride], the Kb came to 7.1 nM.

Regarding `COc1ccccc1C(CCN(C)C(C)C)c1cccs1` (stereo not drawn) [Example 47, N-Isopropyl-N-methyl-3-(2-methoxyphenyl)-3-(2-thienyl)propanamine fumarate], the Kb stood at 91 nM. On the same count and under the same terms, the result for `COc1ccc(C(CCN(C(C)C)C(C)C)c2cccs2)cc1` (stereo not drawn) [Example 46, N,N-Diisopropyl-3-(4-methoxyphenyl)-3-(2-thienyl)propanamine hydrochloride] reads 286 nM; that for `CC(O)c1ccc(O)c([C@H](CCN(C(C)C)C(C)C)c2ccccc2)c1` (stereo partly drawn) [Example 14, N,N-Diisopropyl-3(R)-[2-hydroxy-5-(1-hydroxyethyl)phenyl]-3-phenylpropanamine fumarate], 4.5 nM; that for `CCOCc1ccc(O)c([C@H](CCN(C(C)C)C(C)C)c2ccccc2)c1` [Example 19, (R)-N,N-Diisopropyl-3-(5-ethoxymethyl-2-hydroxyphenyl)-3-phenylpropanamine], 2.9 nM. Turning to `CCNCc1ccc(O)c([C@H](CCN(C(C)C)C(C)C)c2ccccc2)c1` [Example 30, N,N-Diisopropyl-3-(5-ethylaminomethyl-2-hydroxyphenyl)-3-phenylpropanamine], the Kb was found to be 139 nM.
